US11484513B2, “Salbutamol-containing ophthalmic medicament” (priority 2016, dated 2022)

What was measured:
[1] = test system: Myopia; assay: Clinical observation in myopia patients; type: in vivo, human; conditions: 12 myopia patients, eye drops
Method: (§1) The invention will be illustrated further by the description of clinical examples, which of course are not limiting in nature. The medicament was administrated orally, topically in the form of eye drops or by intraocular injection especially intravitreal injection, unless indicated differently.
(§2) According to particular embodiments where topical administration using eye drops is carried out, the dosages, posologies, administration regimen of the administered active principles are as described in the particular embodiments disclosed in the detailed description, i.e., Salbutamol is administered topically in a concentration of 0.1% (w/v), and/or Ramiprilate is administered topically in a concentration of 2% (w/v), and/or eplerenone is administered topically in a concentration of 1% (w/v), and/or N Acetyl DL Leucine is administered topically in a concentration of 1% (w/v), the active principle(s) being administered once or twice or three times, and up to four times a day, during 1, 2 or 3 months, or more, unless specified differently.
This invention relates to the manufacture of an eye protective medicament, namely Salbutamol via general route or topical route (eye drops) for improving vision.
12 patients were evaluated and received salbutamol in the form of eye drops.
Results: in the addition to the improvement of their visual acuity, the refractive value was reduced. […]

[2] = test system: Presbyopia; assay: Clinical observation in presbyopia patients; type: in vivo, human; conditions: 08 patients, eye drops
Method: as §1, §2
08 patients received Salbutamol in the form of eye drops and experimented an improvement of their near vision and a decrease in presbyopia. […] Salbutamol has proven to be an effective treatment of presbyopia.

[3] = test system: Pigmentosa retinitis; assay: Clinical observation in pigmentosa retinitis patients; type: in vivo, human
Text: as §1

[4] = test system: Glaucoma; assay: Clinical observation in glaucoma patients; type: in vivo, human; conditions: patients with known glaucoma, pooled (Salbutamol alone or associated)
Method: as §1
Patients with known glaucoma experienced a decrease in their ocular tension, and an improvement of their visual acuity and visual field once they are treated with Salbutamol or salbutamol associated with one or more of these: N Acetyl DL Leucine, glucose, magnesium, aldosterone receptor antagonist (eplerenone), angiotensin converting enzyme inhibitor (Ramiprilat), β1 blocker and anhydrase carbonic inhibitor.

[5] = test system: Dry eye; assay: Clinical observation in dry eye patients; type: in vivo, human; conditions: 7 patients, eye drops
Text: as §1

[6] = test system: Corneal oedema; assay: Clinical observation in corneal oedema patients; type: in vivo, human; conditions: 10 patients
Text: as §1

[7] = test system: Age related macular degeneration; assay: Clinical observation in age related macular degeneration patients (visual acuity, OCT, fluoro-angiography); type: in vivo, human
Method: as §1, §2
The structural information provided by O.C.T is becoming a valuable diagnostic adjunct to fluorescein angiography. OCT is a valuable tool for probing the effect of these treatments.
15 patients were treated with salbutamol or salbutamol associated with one or more of these: aldosterone receptor antagonist, ACEI (angiotensin converting enzyme inhibitor), N Acetyl DL Leucine, magnesium and serrapeptase (Eye drops; tablets; intra ocular injection).
Patient three presented with a history of decreased vision in the right eye. […] Prior to receiving Salbutamol treatment an OCT scan was taken, which is shown in (FIG. 06).
Then we prescribe topically Salbutamol eye drops 0.1% (w/v), Ramiprilat eye drops 2% (W/v), Eplerenone eye drops 1% (w/v). N Acetyl DL Leucine eye drops 1% (w/v) association three times a day.
Patient two presented with a six months history of decreased vision in the right eye.
They were treated with Salbutamol eye drops 0.1% (w/v). Three months later visual acuity improved.

[8] = test system: Astigmatism; assay: Clinical observation in astigmatism subjects; type: in vivo, human
Text: The invention will be illustrated further by the description of clinical examples, which of course are not limiting in nature. The medicament was administrated orally, topically in the form of eye drops or by intraocular injection especially intravitreal injection, unless indicated differently. This invention relates to the manufacture of an eye protective medicament, namely Salbutamol via general route or topical route (eye drops) for improving vision. More particularly, but not exclusively, it relates to eye drops comprising Salbutamol, which are intended for improving (i.e., in the present case decreasing the effects of presbyopia, myopia, hypermetropia and astigmatism) and for stabilizing them or even reversing their evolutive course thereof. The astigmatism subjects noticed an improvement of their refraction and visual acuity.

[9] = test system: Uveitis; assay: Clinical observation in uveitis cases (visual acuity, OCT); type: in vivo, human; conditions: 10 cases of uveitis pooled (salbutamol alone or associated)
Method: as §1, §2
In 10 cases of uveitis; salbutamol alone or associated with one or more of these: non-steroidal anti inflammatory drugs, angiotensin converting enzyme inhibitors, aldosterone receptors antagonist, β1 blocker, anhydrase carbonic inhibitor, magnesium, corticosteroids and serrapeptase reduced inflammatory disorders. […]

[10] = test system: Vitreous hemorrhage; assay: Clinical observation in vitreous hemorrhage; type: in vivo, human; conditions: many cases
Text: as §1

[11] = test system: Age related physiological vision decline; assay: Clinical observation in age related physiological vision decline; type: in vivo, human; conditions: many cases, absence of any ocular pathology
Text: as §1

[12] = test system: Stargardt's disease; assay: Clinical observation in Stargardt's disease patients; type: in vivo, human; conditions: 8 patients
Text: as §1
8 patients treated with Salbutamol noticed an improvement of their visual acuity.
If we associate to Salbutamol one or more of these: N Acetyl DL Leucine, nitric monoxide donor (vitamin C, vitamin B9), Ramiprilat, and aldosterone receptor antagonist; improvement is noted.

[13] = test system: Keratoconus; assay: Clinical observation in keratoconus patients; type: in vivo, human; conditions: 02 keratoconus patients
Text: The invention will be illustrated further by the description of clinical examples, which of course are not limiting in nature. The medicament was administrated orally, topically in the form of eye drops or by intraocular injection especially intravitreal injection, unless indicated differently. 02 patients received Salbutamol, they noticed an improvement of visual acuity and a reduced irregular astigmatism.

[14] = test system: Diabetic retinopathy; assay: Clinical observation in diabetic retinopathy patients (visual acuity, OCT); type: in vivo, human
Method: as §1, §2
Currently, one examination technique is very useful in evaluating diabetic; that's optical coherence tomography (O.C.T).
OCT is very sensitive in evaluating diabetic macular oedema, central macular thickness correlates with visual acuity.
The response of macular oedema to the administration of one drug such as Salbutamol or a medicament associating Salbutamol, angiotensin converting enzyme inhibitor, antagonist of aldosterone receptor and N Acetyl DL Leucine can be documented accurately by O.C.T imaging.
Diabetic patients were treated with these medicaments given topically,
The following study was undertaken on several patients having non-proliferative diabetic; retinopathy or proliferative diabetic retinopathy.
20 patients were treated with either Salbutamol or salbutamol associated with one or more of these: ACEI (angiotensin converting enzyme inhibitor), aldosterone receptor antagonist, N Acetyl DL Leucine, magnesium and serrapeptase (eye drops; tablets; intra ocular injection especially intra vitreal injection). […]

[15] = test system: Periretinal fibrosis; assay: Clinical observation in periretinal fibrosis; conditions: human, in vivo
Text: as §1
13) Periretinal fibrosis: is reduced after Salbutamol treatment.

[16] = test system: Vitreo macular traction; assay: Clinical observation in vitreo macular traction / proliferative diabetic retinopathy (vitreolysis); type: in vivo, human
Text: as §1
In many cases of proliferative diabetic retinopathy including fibrovascular proliferation, retinal detachment, vitreo macular traction, the intravitreal injection of Salbutamol led to induction of posterior vitreous detachment, easier peeling and removal of epiretinal fibrotic membrane and internal limiting membrane particularly in macular hole pathology.

[17] = test system: Allergic conjunctivitis and blepharitis; assay: Clinical observation in allergic conjunctivitis and blepharitis patients; type: in vivo, human; conditions: 5 patients, eye drops
Text: as §1

[18] = test system: Cataract; assay: Clinical observation in cataract; type: in vivo, human; conditions: under salbutamol
Text: as §1

[19] = 15 patients pooled (salbutamol alone or associated), eye drops, tablets, intra ocular injection
[20] = patient two, right eye, Salbutamol eye drops 0.1% (w/v), three months later
[21] = 20 patients pooled (Salbutamol alone or associated), eye drops, tablets, intra ocular injection

With `CC(C)(C)NCC(O)c1ccc(O)c(CO)c1` (stereo not shown) [Salbutamol] as the compound, how does the refractive value [1] read?
Its refractive value is “reduced”.

What about the visual acuity [1] of the same compound?
The visual acuity was “improvement”.

What about the near vision [2] of the same compound?
Its near vision is “improvement”.

What about the “need to wear a correction of the near vision” value [2] of the same compound?
Its value is “Some of them did not need any longer”.

What about the presbyopia [2] of the same compound?
The presbyopia was “decrease”.

What about the visual acuity ([3]; 9 patients, all of them) of the same compound?
The visual acuity was “improvement”.

What about the visual field ([3]; 9 patients, all of them) of the same compound?
Its visual field is “improvement”.

And the visual function ([3]; pigmentosa retinitis)?
The visual function was “improvement”.

And the ocular tension [4]?
The ocular tension was “decrease”.

And the visual acuity [4]?
Its visual acuity is “improvement”.

What about the visual field [4] of the same compound?
Its visual field is “improvement”.

And the dry eye [5]?
Its dry eye is “improved”.

What about the oedema [6] of the same compound?
The oedema was “decreased”.

What about the vision [6] of the same compound?
The vision was “improve”.

And the O.C.T [7, 19]?
The O.C.T was “improvement”.

And the visual acuity [7, 19]?
The visual acuity was “improvement”.

What about the macular thickening ([7]; eye drops given topically instead of intraocular anti VEGF injection) of the same compound?
Its macular thickening is “regression”.

And the “successive OCT controls” value ([7]; patient three, first round of treatment (Salbutamol))?
The value was “more improvement but no complete recovery”.

What about the macular thickening ([7]; patient three, right eye, occult CNV, three months after Salbutamol treatment) of the same compound?
The macular thickening was “incomplete regression”.

And the “macular thickening (OCT)” value [7, 20]?
The value was “incomplete regression”.

What about the visual acuity [7, 20] of the same compound?
The visual acuity was “improved”.

What about the refraction [8] of the same compound?
The refraction was “improvement”.

And the visual acuity [8]?
Its visual acuity is “improvement”.

And the inflammatory disorders [9]?
Its inflammatory disorders is “reduced”.

And the vitreous hemorrhage [10]?
Its vitreous hemorrhage is “decreased”.

What about the visual function [11] of the same compound?
Its visual function is “improved”.

What about the visual acuity [12] of the same compound?
The visual acuity was “improvement”.

And the irregular astigmatism [13]?
Its irregular astigmatism is “reduced”.

What about the visual acuity [13] of the same compound?
Its visual acuity is “improvement”.

What about the retinopathy [14, 21] of the same compound?
The retinopathy was “improves”.

What about the visual acuity [14, 21] of the same compound?
Its visual acuity is “improves”.

What about the “total macular volume (OCT)” value ([14]; patient one, eye drops 0.1% (w/v), two months after treatment) of the same compound?
Its value is “decreased”.

What about the periretinal fibrosis [15] of the same compound?
The periretinal fibrosis was “reduced”.

And the “effect on the retina” value ([16]; during vitreolysis)?
The value was “without adversely affecting the retina”.

And the proteolytic activity ([16]; human, in vivo)?
The proteolytic activity was “seems to have a proteolytic activity”.

What about the vitreolysis ([16]; human, in vivo) of the same compound?
Its vitreolysis is “promotes a vitreolysis inducing both synchesis and synerisis”.

What about the posterior vitreous detachment ([16]; intravitreal injection, many cases of proliferative diabetic retinopathy incl. vitreo macular traction) of the same compound?
The posterior vitreous detachment was “induction”.

And the “peeling and removal of epiretinal fibrotic membrane and internal limiting membrane” value ([16]; intravitreal injection, many cases of proliferative diabetic retinopathy, particularly macular hole pathology)?
The value was “easier”.

What about the “allergic conjunctivitis and blepharitis” value [17] of the same compound?
Its value is “improved”.

And the improvement of cataract [18]?
The improvement of cataract was “Some improvement”.
